Laboratory results reported in patent US11071731B2, “Allosteric modulators of the mu opioid receptor” (Chiromics, LLC, priority 2017, dated 2021).

Experiments:
mu opioid receptor (MOR) [1] = target: T1, mu opioid receptor (MOR) (Homo sapiens, UniProt P35372); assay: PathHunter β-arrestin recruitment assay, PAM mode with EC20 endomorphin-1; assay type: cell-based; settings: for β-arr Max. Resp.: maximal response for β-arrestin recruitment; for EC50: β-arrestin recruitment, read-out: β-arr. EC50
Outline: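 β-Arrestin recruitment to the receptor was tracked by chemiluminescent β-galactosidase activity from complementing fragments (ED on receptor, EA on β-arrestin). Per-compound outputs were EC50 and percent maximal response.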

mu opioid receptor (MOR) [2] = target: T1, mu opioid receptor (MOR); assay: Hit Hunter cAMP signaling assay (adenylyl cyclase inhibition), PAM mode with EC20 endomorphin-1; assay type: cell-based; settings: for cAMP Max. Resp.: maximal response for adenylyl cyclase inhibition
[3] = cAMP EC50, adenylyl cyclase inhibition

T1 sequence (P35372 whole entry, the tested form may be a part): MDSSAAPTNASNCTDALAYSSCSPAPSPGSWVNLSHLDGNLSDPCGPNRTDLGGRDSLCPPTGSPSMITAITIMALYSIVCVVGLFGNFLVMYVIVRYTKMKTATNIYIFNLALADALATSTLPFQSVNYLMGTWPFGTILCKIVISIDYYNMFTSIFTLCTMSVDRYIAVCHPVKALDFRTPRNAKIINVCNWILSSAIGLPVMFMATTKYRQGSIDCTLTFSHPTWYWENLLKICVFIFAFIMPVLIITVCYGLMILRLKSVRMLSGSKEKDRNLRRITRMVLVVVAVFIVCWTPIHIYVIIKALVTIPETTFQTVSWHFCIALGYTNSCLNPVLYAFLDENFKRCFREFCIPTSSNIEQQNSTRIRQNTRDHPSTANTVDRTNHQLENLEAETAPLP

SMILES	β-arr Max. Resp. (mu opioid receptor (MOR) [1])	EC50 (mu opioid receptor (MOR) [1]) [nM]	EC50 (mu opioid receptor (MOR) [2]; [3]) [nM]	cAMP Max. Resp. (mu opioid receptor (MOR) [2])	EC50 (mu opioid receptor (MOR) [2]; adenylyl cyclase inhibition, read-out: cAMP EC50) [nM]
Fc1cc(C2CCCCN2c2nc(Cl)ncc2F)cc(C(F)(F)F)c1 (stereo not shown) [compound 122]	F (F represents a maximal response of > 60%)	< 700	< 700	F (F represents a maximal response of > 60%)	
Fc1ccc(C2CCCCN2c2nc(Cl)ncc2F)cc1Br (stereo not shown) [compound 124]	F (F represents a maximal response of > 60%)	< 700	< 700	E (E represents a maximal response of 40-60%)	
Fc1cnc(Cl)nc1N1CCCCC1c1ccc(OC(F)(F)F)c(Br)c1 (stereo not shown) [compound 126]	F (F represents a maximal response of > 60%)	< 700	< 700	E (E represents a maximal response of 40-60%)	
Fc1ccc(C2CCCCN2c2nc(Cl)ncc2F)cc1 (stereo not shown) [compound 127]	F (F represents a maximal response of > 60%)	< 700	700 to 2100	E (E represents a maximal response of 40-60%)	
Fc1cnc(Cl)nc1N1CCCCC1c1ccc(Cl)c(C(F)(F)F)c1 (stereo not shown) [compound 128]	F (F represents a maximal response of > 60%)	< 700	700 to 2100	E (E represents a maximal response of 40-60%)	
Fc1ccc(C2CCCCN2c2nc(Cl)ncc2F)cc1F (stereo not shown) [compound 129]	F (F represents a maximal response of > 60%)	< 700	700 to 2100	E (E represents a maximal response of 40-60%)	
Cc1cc(C2CCCCN2c2nc(Cl)ncc2F)ccc1F (stereo not shown) [compound 130]	F (F represents a maximal response of > 60%)	< 700	700 to 2100	E (E represents a maximal response of 40-60%)	
Fc1cnc(Cl)nc1N1CCCCC1c1cccc(OC(F)(F)F)n1 (stereo not shown) [compound 131]	F (F represents a maximal response of > 60%)	700 to 2100	700 to 2100	D (D represents a maximal response of < 40%)	
COc1ccc(C2CCCCN2c2nc(Cl)ncc2F)cc1Br (stereo not shown) [compound 132]	F (F represents a maximal response of > 60%)	> 2100	700 to 2100	D (D represents a maximal response of < 40%)	
Fc1cccc(C2CCCCN2c2nc(Cl)ncc2F)n1 (stereo not shown) [compound 133]	F (F represents a maximal response of > 60%)	> 2100	> 2100	E (E represents a maximal response of 40-60%)	
Cc1ccc(C(F)(F)F)cc1C1CCCCN1c1nc(Cl)ncc1F (stereo not shown) [compound 134]	F (F represents a maximal response of > 60%)	> 2100	> 2100	D (D represents a maximal response of < 40%)	
Cc1c(C2CCCCN2c2nc(Cl)ncc2F)cccc1C(F)(F)F (stereo not shown) [compound 135]	F (F represents a maximal response of > 60%)	700 to 2100	< 700	D (D represents a maximal response of < 40%)	
Fc1ccc(C2C3CCC(C3)N2c2nc(Cl)ncc2F)cc1Br (stereo not shown) [compound 136]	F (F represents a maximal response of > 60%)	> 2100	> 2100	D (D represents a maximal response of < 40%)	
Fc1cnc(Cl)nc1N1C2CCC(C2)C1c1cccc(C(F)(F)F)n1 (stereo not shown) [compound 137]	D (D represents a maximal response of < 40%)	> 2100	> 2100	D (D represents a maximal response of < 40%)	
COc1ccc(C2C3CCC(C3)N2c2nc(Cl)ncc2F)cc1Br (stereo not shown) [compound 138]	D (D represents a maximal response of < 40%)	> 2100	> 2100	D (D represents a maximal response of < 40%)	
Fc1cc(C2C3CCC(C3)N2c2nc(Cl)ncc2F)cc(C(F)(F)F)c1 (stereo not shown) [compound 139]	F (F represents a maximal response of > 60%)	> 2100	> 2100	E (E represents a maximal response of 40-60%)	

SMILES	β-arr Max. Resp. (mu opioid receptor (MOR) [1])	EC50 (mu opioid receptor (MOR) [1]) [nM]	EC50 (mu opioid receptor (MOR) [2]; [3]) [nM]	cAMP Max. Resp. (mu opioid receptor (MOR) [2])	EC50 (mu opioid receptor (MOR) [2]; adenylyl cyclase inhibition, read-out: cAMP EC50) [nM]
OCCNc1cccc(C2CCCCN2Cc2cc(Cl)ccc2F)n1 (stereo not shown) [compound 141]	D (D represents a maximal response of < 40%)	> 2100		D (D represents a maximal response of < 40%)	> 2100
FC(F)(F)c1cccc(C2CCCCN2Cc2cncc(Cl)c2)n1 (stereo not shown) [compound 143]	D (D represents a maximal response of < 40%)	> 2100	> 2100	D (D represents a maximal response of < 40%)	
[N-]=[N+]=Nc1cccc(C2CCCCN2Cc2cc(Cl)ccc2F)n1 (stereo not shown) [compound 144]	E (E represents a maximal response of 40-60%)	> 2100	> 2100	D (D represents a maximal response of < 40%)	
Fc1ccc(C2CCCCN2Cc2cc(Cl)ccn2)cc1Cl (stereo not shown) [compound 145]	F (F represents a maximal response of > 60%)	> 2100	700 to 2100	E (E represents a maximal response of 40-60%)	
FC(F)(F)c1cccc(C2CCCCN2Cc2ccc(Cl)cc2)n1 (stereo not shown) [compound 146]	F (F represents a maximal response of > 60%)	> 2100	> 2100	D (D represents a maximal response of < 40%)	
Fc1ccc(C2CCCCN2Cc2cncc(Cl)c2)cc1Cl (stereo not shown) [compound 147]	F (F represents a maximal response of > 60%)	> 2100	> 2100	D (D represents a maximal response of < 40%)	
Fc1cc(C2CCCCN2Cc2cccc(Br)c2)cc(C(F)(F)F)c1 (stereo not shown) [compound 148]	F (F represents a maximal response of > 60%)	700 to 2100	> 2100	E (E represents a maximal response of 40-60%)	
CN(C)c1cccc(C2CCCCN2Cc2cc(Cl)ccc2F)n1 (stereo not shown) [compound 149]	F (F represents a maximal response of > 60%)	> 2100	> 2100	E (E represents a maximal response of 40-60%)	
Fc1ccc(Cl)cc1CN1CCCCC1c1ccc(Cl)c(C(F)(F)F)c1 (stereo not shown) [compound 150]	F (F represents a maximal response of > 60%)	< 700	< 700	E (E represents a maximal response of 40-60%)	
Fc1ccc(C2CCCCN2Cc2cc(Cl)cc(Cl)c2)cc1Cl (stereo not shown) [compound 151]	F (F represents a maximal response of > 60%)	> 2100	> 2100	D (D represents a maximal response of < 40%)	
Fc1cccc(CN2CCCCC2c2cccc(C(F)(F)F)n2)c1 (stereo not shown) [compound 152]	F (F represents a maximal response of > 60%)	> 2100	700 to 2100	E (E represents a maximal response of 40-60%)	
FC(F)(F)c1cccc(C2CCCCN2Cc2ccc(Cl)c(Cl)c2)n1 (stereo not shown) [compound 153]	F (F represents a maximal response of > 60%)	> 2100	> 2100	D (D represents a maximal response of < 40%)	
FC(F)(F)c1cccc(C2CCCCN2Cc2cccc(Cl)c2)c1 (stereo not shown) [compound 154]	F (F represents a maximal response of > 60%)	< 700	< 700	E (E represents a maximal response of 40-60%)	
Fc1cc(Cl)cc(CN2CCCCC2c2ccc(F)c(Cl)c2)c1 (stereo not shown) [compound 155]	F (F represents a maximal response of > 60%)	700 to 2100	700 to 2100	D (D represents a maximal response of < 40%)	
COc1cccc(CN2CCCCC2c2cccc(C(F)(F)F)n2)c1 (stereo not shown) [compound 156]	F (F represents a maximal response of > 60%)	> 2100	> 2100	E (E represents a maximal response of 40-60%)	
